Source: patent publication US20130209515A1, “ANTI-INFECTIVE AND IMMUNOMODULATORY COMPOUNDS” (priority 2005, published 2013)
Entries after “also recorded” stand apart in the source; their conditions may differ.

Tested on: pqsA-LacZ (MvfR-dependent pqs operon transcription)
Experiment: pqsA-LacZ expression (β-galactosidase activity)
Format: cell-based, Pseudomonas aeruginosa
Description: To assess the effect of this compound on bacteria, we analyzed the production of HAQs in the presence of 2AA using LC/MS. The bacteria were propagated in the presence of 3 mM 2AA, culture media was collected at different time points, and the HHQ, PQS and HQNO production was measured in the supernatant. […] Since 2AA addition to the P. aeruginosa culture inhibits the production of HHQ and PQS, we assessed the transcription from the pqs operon using a pqsA-LacZ fusion.
To further, understand the mechanism of inhibition of the pqs operon by 2AA, we carried out competition assays of PQS and HHQ with 2AA. The expression of pqsA-LacZ in pqsApqsH double mutants was assessed. Bacteria were grown to an OD600 of 1.0 and HHQ and PQS were added either alone or with 2AA. LacZ expression was assayed at different stages of the growth, using standard protocols.
To determine whether HHQ activates MvfR expression, we generated a PA14pqsH/pqsA double mutant that lacks all HAQ production, and assessed pqsA-lacZ activity in the absence and presence of HHQ and PQS.

In the case of `CC(=O)c1ccccc1N` [2AA, 2′-aminoacetophenone], the “LacZ expression from pqsA-LacZ fusion” value (PA14, 3 mM 2AA (FIG. 14)) is reported as “significant reduction”, the “pqsA expression (pqsA-LacZ) in response to HHQ” value (pqsApqsH double mutant, 3 mM 2AA with 1 mg/L HHQ) is reported as “blocks pqsA expression” and the “pqsA expression (pqsA-LacZ) in response to PQS” value (pqsApqsH double mutant, 3 mM 2AA with 10 μl PQS) is reported as “blocks pqsA expression; also recorded: inhibits pqsA expression at later time points”.
